From US20230255966A1, “A COMBINATION OF A CBP/P300 BROMODOMAIN INHIBITOR AND AN EGFR INHIBITOR FOR USE IN TREATING EGFR-MUTANT NSCLC” (TOLREMO THERAPEUTICS AG, priority 2020, published 2023) come the findings set out here.

The subject of one assay is HCC827 cells. In words: Cell counting by nuclear fluorescent staining (Hoechst33342). The format is cell-based. As to the method: Several plates were seeded, as for each time point of cell counting one plate was fixed and stained for analysis. […] Cell cultivation was continued until time of fixation and analysis for each plate. For extended time-points, medium and drugs were replenished twice weekly.
At the given time plates were washed 3 times with PBS and cells fixed with 80 μl 4% PFA for 10 min, RT. After 3 wash steps with PBS cells were stained with 10 μg/ml Hoechst33342 (Thermo Scientific H12492) in 100 μl PBS for 2 h, RT, dark. After 3× PBS washing-steps, Hoechst33342 signals were acquired on in an automated imaging mode using a Zeiss Apotome with motorized X/Y stage and a 5× objective. Image analysis and determination of Hoechst33342 spots (nuclei) was done using ImageJ. Number of nuclei was plotted as function of time using GraphPad Prism.

The target of a further assay is T1, BRD4(1) (Homo sapiens, UniProt O60885).
T1 construct: T7 phage strains displaying bromodomains were grown in parallel; purchased DiscoverX; host or cells: T7 phage in E. coli host derived from BL21
In words: BROMOscan BromoKdMAX. The format is binding. As to the method:
(§1) A BromoKdMAX was performed at DiscoverX.
(§2) The assay principle is the following: BROMOscan™ is a novel industry leading platform for identifying small molecule bromodomain inhibitors. Based on proven KINOMEscan™ technology, BRO-MOscan™ employs a proprietary ligand binding site-directed competition assay to quantitatively measure interactions between test compounds and bromodomains.
(§3) The assay was conducted as follows: For the Bromodomain assays, T7 phage strains displaying bromodomains were grown in parallel in 24-well blocks in an E. coli host derived from the BL21 strain. E. coli were grown to log-phase and infected with T7 phage from a frozen stock (multiplicity of infection=0.4) and incubated with shaking at 32° C. until lysis (90-150 minutes). The lysates were centrifuged (5,000×g) and filtered (0.2 μm) to remove cell debris. […] The liganded beads were blocked with excess biotin and washed with blocking buffer (SeaBlock (Pierce), 1% BSA, 0.05% Tween 20, 1 mM DTT) to remove unbound ligand and to reduce non-specific phage binding. […] Test compounds were prepared as 1000× stocks in 100% DMSO. Kds were determined using an 11-point 3-fold compound dilution series with one DMSO control point. […] The compounds were then diluted directly into the assays such that the final concentration of DMSO was 0.09%. All reactions performed in polypropylene 384-well plates. Each was a final volume of 0.02 ml. […] The bromodomain concentration in the eluates was measured by qPCR.

The next assay deals with T2, BRPF1 (Homo sapiens, UniProt P55201).
T2 construct: T7 phage strains displaying bromodomains were grown in parallel; purchased DiscoverX; host or cells: T7 phage in E. coli host derived from BL21
In words: BROMOscan BromoKdMAX. The format is binding. As to the method:
as §1, §2, §3

The target in another assay is T3, BRDT(2) (Homo sapiens, UniProt Q58F21).
T3 construct: T7 phage strains displaying bromodomains were grown in parallel; purchased DiscoverX; host or cells: T7 phage in E. coli host derived from BL21
In words: BROMOscan BromoKdMAX. The format is binding. As to the method:
as §1, §2, §3

Another assay concerns the target T4, TAF1(2) (Homo sapiens, UniProt P21675).
T4 construct: T7 phage strains displaying bromodomains were grown in parallel; purchased DiscoverX (BROMOscan / BromoKdMAX service); host or cells: T7 phage in E. coli host derived from BL21
In words: BROMOscan BromoKdMAX. The format is binding. As to the method: as §1, §2, §3

The target of the next assay is T5, BRDT(1) (Homo sapiens, UniProt Q58F21).
T5 construct: T7 phage strains displaying bromodomains were grown in parallel; purchased DiscoverX; host or cells: T7 phage in E. coli host derived from BL21
In words: BROMOscan BromoKdMAX. The format is binding. As to the method:
as §1, §2, §3

For the next assay, the target named is T6, BRDT(1, 2) (Homo sapiens, UniProt Q58F21).
T6 construct: T7 phage strains displaying bromodomains were grown in parallel; purchased DiscoverX; host or cells: T7 phage in E. coli host derived from BL21
In words: BROMOscan BromoKdMAX. The format is binding. As to the method: as §1, §2, §3

In another assay the target is T7, BRD8(2) (Homo sapiens, UniProt Q9H0E9).
T7 construct: T7 phage strains displaying bromodomains were grown in parallel; purchased DiscoverX; host or cells: T7 phage in E. coli host derived from BL21
Nature of the assay: BROMOscan BromoKdMAX. The format is binding. As to the method: as §1, §2, §3

In a further assay the target is T8, BRD2(2) (Homo sapiens, UniProt P25440).
T8 construct: T7 phage strains displaying bromodomains were grown in parallel; purchased DiscoverX; host or cells: T7 phage in E. coli host derived from BL21
In words: BROMOscan BromoKdMAX. The format is binding. As to the method: as §1, §2, §3

A further assay deals with T9, BRD7 (Homo sapiens, UniProt Q9NPI1).
T9 construct: T7 phage strains displaying bromodomains were grown in parallel; purchased DiscoverX; host or cells: T7 phage in E. coli host derived from BL21
In words: BROMOscan BromoKdMAX. The format is binding. As to the method:
as §1, §2, §3

For a further assay, the target named is T10, BRD2(1, 2) (Homo sapiens, UniProt P25440).
T10 construct: T7 phage strains displaying bromodomains were grown in parallel; purchased DiscoverX; host or cells: T7 phage in E. coli host derived from BL21
Nature of the assay: BROMOscan BromoKdMAX. The format is binding. As to the method: as §1, §2, §3

Another assay concerns the target T11, BRD9 (Homo sapiens, UniProt Q9H8M2).
T11 construct: T7 phage strains displaying bromodomains were grown in parallel; purchased DiscoverX; host or cells: T7 phage in E. coli host derived from BL21
In words: BROMOscan BromoKdMAX. The format is binding. As to the method: as §1, §2, §3

The target in another assay is T12, BRD4(2) (Homo sapiens, UniProt O60885).
T12 construct: T7 phage strains displaying bromodomains were grown in parallel; purchased DiscoverX; host or cells: T7 phage in E. coli host derived from BL21
In words: BROMOscan BromoKdMAX. The format is binding. As to the method: as §1, §2, §3

In a further assay the target is T13, TRIM24(Bromo.) (Homo sapiens, UniProt O15164).
T13 construct: TRIM24(Bromo.); purchased DiscoverX (BROMOscan / BromoKdMAX service); host or cells: T7 phage in E. coli host derived from BL21
Nature of the assay: BROMOscan BromoKdMAX. The format is binding. As to the method:
as §1, §2, §3

Another assay addresses T14, BRD8(1) (Homo sapiens, UniProt Q9H0E9).
T14 construct: T7 phage strains displaying bromodomains were grown in parallel; purchased DiscoverX; host or cells: T7 phage in E. coli host derived from BL21
Nature of the assay: BROMOscan BromoKdMAX. The format is binding. As to the method: as §1, §2, §3

Assay [1] has as its target T15, BRD4(full-length, short-iso.) (Homo sapiens, UniProt O60885).
T15 construct: BRD4 (full-length, short-iso.); purchased DiscoverX; host or cells: T7 phage in E. coli host derived from BL21 (general protocol)
Nature of the assay: BROMOscan BromoKdMAX. The format is binding. As to the method:
as §1, §2, §3

Another assay concerns the target T16, TRIM24(PHD, Bromo.) (Homo sapiens, UniProt O15164).
T16 construct: TRIM24(PHD, Bromo.); purchased DiscoverX (BROMOscan / BromoKdMAX service); host or cells: T7 phage in E. coli host derived from BL21
Nature of the assay: BROMOscan BromoKdMAX. The format is binding. As to the method: as §1, §2, §3

Another assay has as its target T17, PCAF (Homo sapiens, UniProt Q92831).
T17 construct: T7 phage strains displaying bromodomains were grown in parallel; purchased DiscoverX (BROMOscan / BromoKdMAX service); host or cells: T7 phage in E. coli host derived from BL21
In words: BROMOscan BromoKdMAX. The format is binding. As to the method: as §1, §2, §3

The target in another assay is T18, BRD4(1, 2) (Homo sapiens, UniProt O60885).
T18 construct: T7 phage strains displaying bromodomains were grown in parallel; purchased DiscoverX; host or cells: T7 phage in E. coli host derived from BL21
In words: BROMOscan BromoKdMAX. The format is binding. As to the method:
as §1, §2, §3

The next assay concerns the target T19, TAF1L(2) (Homo sapiens, UniProt Q8IZX4).
T19 construct: T7 phage strains displaying bromodomains were grown in parallel; purchased DiscoverX (BROMOscan / BromoKdMAX service); host or cells: T7 phage in E. coli host derived from BL21
In words: BROMOscan BromoKdMAX. The format is binding. As to the method:
as §1, §2, §3

A further assay addresses T20, BRD2(1) (Homo sapiens, UniProt P25440).
T20 construct: T7 phage strains displaying bromodomains were grown in parallel; purchased DiscoverX; host or cells: T7 phage in E. coli host derived from BL21
Nature of the assay: BROMOscan BromoKdMAX. The format is binding. As to the method:
as §1, §2, §3

Another assay has as its target T21, WDR9(2) (Homo sapiens, UniProt Q9NSI6).
T21 construct: T7 phage strains displaying bromodomains were grown in parallel; purchased DiscoverX (BROMOscan / BromoKdMAX service); host or cells: T7 phage in E. coli host derived from BL21
Nature of the assay: BROMOscan BromoKdMAX. The format is binding. As to the method: as §1, §2, §3

In another assay the target is T22, CECR2 (Homo sapiens, UniProt Q9BXF3).
T22 construct: T7 phage strains displaying bromodomains were grown in parallel; purchased DiscoverX; host or cells: T7 phage in E. coli host derived from BL21
In words: BROMOscan BromoKdMAX. The format is binding. As to the method: as §1, §2, §3

T4 sequence (P21675 1519-1628 limits assumed): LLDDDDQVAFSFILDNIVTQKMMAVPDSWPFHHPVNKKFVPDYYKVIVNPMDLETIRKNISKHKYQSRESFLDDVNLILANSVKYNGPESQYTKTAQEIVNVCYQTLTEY
T21 sequence (Q9NSI6 1313-1418 limits assumed): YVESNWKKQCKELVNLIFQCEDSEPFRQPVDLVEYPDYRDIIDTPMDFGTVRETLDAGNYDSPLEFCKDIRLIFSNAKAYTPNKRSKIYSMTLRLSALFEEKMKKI
T7 sequence (Q9H0E9 1099-1207 limits assumed): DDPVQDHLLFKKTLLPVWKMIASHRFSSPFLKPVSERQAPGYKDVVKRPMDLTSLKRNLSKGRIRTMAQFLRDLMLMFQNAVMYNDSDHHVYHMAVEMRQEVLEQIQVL
T20 sequence (P25440 74-180 limits assumed): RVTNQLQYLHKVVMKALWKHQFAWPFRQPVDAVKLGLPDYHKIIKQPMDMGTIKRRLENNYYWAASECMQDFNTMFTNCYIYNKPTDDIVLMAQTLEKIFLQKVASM
T11 sequence (Q9H8M2 136-240 limits assumed): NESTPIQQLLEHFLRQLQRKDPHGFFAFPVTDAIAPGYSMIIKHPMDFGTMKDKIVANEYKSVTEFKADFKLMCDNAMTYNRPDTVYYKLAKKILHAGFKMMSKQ
T16 sequence (O15164 824-1006 limits assumed): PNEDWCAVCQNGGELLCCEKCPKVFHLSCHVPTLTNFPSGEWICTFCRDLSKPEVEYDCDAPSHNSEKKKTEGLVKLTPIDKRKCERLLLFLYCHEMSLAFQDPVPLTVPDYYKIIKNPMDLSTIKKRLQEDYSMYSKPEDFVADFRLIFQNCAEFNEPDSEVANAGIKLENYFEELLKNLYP
T2 sequence (P55201 628-732 limits assumed): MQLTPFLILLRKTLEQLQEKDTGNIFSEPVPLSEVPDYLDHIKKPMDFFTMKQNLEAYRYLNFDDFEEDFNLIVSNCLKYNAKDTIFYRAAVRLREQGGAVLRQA
T10 sequence (P25440 71-455 limits assumed): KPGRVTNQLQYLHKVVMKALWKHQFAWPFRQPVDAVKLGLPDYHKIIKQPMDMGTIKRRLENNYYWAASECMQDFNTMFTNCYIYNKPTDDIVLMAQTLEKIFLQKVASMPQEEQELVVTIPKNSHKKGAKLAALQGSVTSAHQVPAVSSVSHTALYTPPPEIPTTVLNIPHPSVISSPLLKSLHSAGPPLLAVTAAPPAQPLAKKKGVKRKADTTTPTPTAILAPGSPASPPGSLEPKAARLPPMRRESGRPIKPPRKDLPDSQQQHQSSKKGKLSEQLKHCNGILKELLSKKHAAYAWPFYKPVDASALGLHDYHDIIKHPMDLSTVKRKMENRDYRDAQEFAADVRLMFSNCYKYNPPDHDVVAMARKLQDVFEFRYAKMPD
T22 sequence (Q9BXF3 434-538 limits assumed): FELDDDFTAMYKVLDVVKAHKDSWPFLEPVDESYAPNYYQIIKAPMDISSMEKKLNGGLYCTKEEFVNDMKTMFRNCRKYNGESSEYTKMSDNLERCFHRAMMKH
T17 sequence (Q92831 723-827 limits assumed): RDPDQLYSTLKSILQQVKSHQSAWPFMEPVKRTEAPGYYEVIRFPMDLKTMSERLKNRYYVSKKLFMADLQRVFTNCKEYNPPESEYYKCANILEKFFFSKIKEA
T8 sequence (P25440 344-453 limits assumed): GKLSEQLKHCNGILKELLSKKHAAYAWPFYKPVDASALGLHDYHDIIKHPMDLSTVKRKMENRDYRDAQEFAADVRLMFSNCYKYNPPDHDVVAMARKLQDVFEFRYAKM
T9 sequence (Q9NPI1 131-235 limits assumed): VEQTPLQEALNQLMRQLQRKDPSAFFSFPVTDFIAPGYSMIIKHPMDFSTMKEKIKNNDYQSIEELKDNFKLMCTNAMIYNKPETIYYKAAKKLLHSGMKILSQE
T14 sequence (Q9H0E9 706-811 limits assumed): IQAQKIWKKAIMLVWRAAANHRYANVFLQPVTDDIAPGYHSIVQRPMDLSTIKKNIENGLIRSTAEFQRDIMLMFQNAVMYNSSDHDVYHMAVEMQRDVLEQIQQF
T13 sequence (O15164 899-1004 limits assumed): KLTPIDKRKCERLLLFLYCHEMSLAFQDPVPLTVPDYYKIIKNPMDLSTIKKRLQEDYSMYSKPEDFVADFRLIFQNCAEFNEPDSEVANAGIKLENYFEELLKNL
T19 sequence (Q8IZX4 1517-1626 limits assumed): as the sequence (P21675 1519-1628 limits assumed) above, with V46M, M51V, V102I, L107I counted along it

One may read the Kd as the concentration at which binding is half-saturated. Higher therefore signals weaker binding. Consider `CO[C@H]1CC[C@H](n2c([C@@H]3CCCC(=O)N3c3ccc(F)c(F)c3)nc3cc(-c4c(C)noc4C)ccc32)CC1` [CCS1477], for which the “Effect on cell proliferation as single agent” value in the assay on HCC827 cells (absence of EGFR inhibitor (FIG. 3 left)) was “do not affect cell proliferation”. Further, the “Anti-proliferative activity / re-growth in presence of Gefitinib” value in the assay on HCC827 cells (in presence of 300 nM Gefitinib (FIG. 3)) was “potentiate the effect of the EGFR inhibitor”. For the same compound, the Kd on BRD4(1) amounted to 250 nM; on BRPF1 it was 1400 nM; at BRDT(2), 8.9 µM; at TAF1(2) it was 7.9 µM; on BRDT(1), 390 nM; on BRDT(1, 2), 2400 nM. Besides, the Kd at BRD8(2) is above 10 µM; on BRD2(2) it was 2100 nM; on BRD7, 5.1 µM; at BRD2(1, 2), 610 nM; on BRD9, 790 nM; on BRD4(2) it was 5.2 µM. Moreover, the dissociation constant Kd on TRIM24(Bromo.) is 680 nM; at BRD8(1) it was above 10 µM; in [1], 440 nM; at TRIM24(PHD, Bromo.), 1900 nM; on PCAF it was above 10 µM; at BRD4(1, 2), 6.9 µM. Also, the dissociation constant (Kd) at TAF1L(2) is above 10 µM; at BRD2(1), 230 nM; on WDR9(2), above 10 µM; at CECR2 it was above 10 µM.
